Reference: patent publication US10597388B2, “Pyridazinone herbicides” (FMC CORPORATION, priority 2014, dated 2020)

Key:
Assay in all cases: Test D controlled growth environment herbicide test, pre- and postemergence
Type in all cases: in vivo
[1] = test system: mustard, wild (wild mustard, Sinapis arvensis)
Method in brief: (§1)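 Species sown in silt loam and sprayed preemergence, or grown in peat-based medium to 2–18 cm (1- to 4-leaf stage) and sprayed postemergence, with compounds in non-phytotoxic solvent plus surfactant. Visual injury scored versus controls after 14–21 d in a controlled environment, 0 (no effect) to 100 (complete control).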

[2] = test system: canarygrass (Phalaris minor)
Method in brief: as §1

[3] = test system: field poppy (Papaver rhoeas)
Method in brief: as §1

[4] = test system: pigweed (Amaranthus retroflexus)
Method in brief: as §1

[5] = test system: oat, wild (wild oat, Avena fatua)
Method in brief: as §1

[6] = test system: bluegrass (annual bluegrass, Poa annua)
Method in brief: as §1

[7] = test system: oilseed rape (Brassica napus)
Method in brief: as §1

[8] = test system: barley, winter (winter barley, Hordeum vulgare)
Method in brief: as §1

[9] = test system: buckwheat, wild (wild buckwheat, Polygonum convolvulus)
Method in brief: as §1

[10] = test system: galium (catchweed bedstraw, Galium aparine)
Method in brief: as §1

[11] = test system: wheat, spring (spring wheat, Triticum aestivum)
Method in brief: as §1

[12] = test system: barley, spring (spring barley, Hordeum vulgare)
Method in brief: as §1

[13] = test system: foxtail, green (green foxtail, Setaria viridis)
Method in brief: as §1

[14] = Postemergence, 31 g ai/ha, scale 0 to 100 (0 no effect, 100 complete control)
[15] = Postemergence, 125 g ai/ha, visual rating on scale 0 (no effect) to 100 (complete control), 14 to 21 d
[16] = Postemergence, 250 g ai/ha, scale 0 to 100 (0 no effect, 100 complete control)
[17] = Preemergence, 62 g ai/ha, scale 0 to 100 (0 no effect, 100 complete control)
[18] = Preemergence, 125 g ai/ha, scale 0 to 100 (0 no effect, 100 complete control)
[19] = Preemergence, 250 g ai/ha, scale 0 to 100, 0 no effect, 100 complete control
[20] = postemergence, 62 g ai/ha, scale 0 to 100, 0 no effect, 100 complete control

SMILES: Cc1cc2ccccc2c(-c2c(O)c(C)nn(C)c2=O)c1C [Compound 34]
- Mustard, Wild plant response rating [1, 14]: 80
- Plant response rating, Mustard, Wild [1, 15]: 100
- Plant response rating, Mustard, Wild [1, 16]: 100
- Plant response rating (scale of 0 to 100), Mustard, Wild ([1]; Preemergence, 31 g ai/ha): 15
- Plant response rating, Mustard, Wild [1, 17]: 25
- Plant response rating, Mustard, Wild [1, 18]: 75
- Plant response rating, Mustard, Wild [1, 19]: 100
- Plant response rating, Mustard, Wild [1, 20]: 85
- Canarygrass plant response rating [2, 14]: 30
- Plant response rating, Canarygrass [2, 15]: 75
- Plant response rating, Canarygrass [2, 16]: 85
- Plant response rating (scale of 0 to 100), Canarygrass ([2]; Preemergence, 31 g ai/ha): 20
- Plant response rating, Canarygrass [2, 17]: 50
- Plant response rating, Canarygrass [2, 18]: 90
- Plant response rating, Canarygrass [2, 19]: 95
- Plant response rating, Canarygrass [2, 20]: 65
- Field Poppy plant response rating [3, 14]: 100
- Plant response rating, Field Poppy [3, 15]: 100
- Plant response rating, Field Poppy [3, 16]: 100
- Plant response rating, Field Poppy [3, 17]: 100
- Plant response rating, Field Poppy [3, 18]: 100
- Plant response rating, Field Poppy [3, 19]: 100
- Plant response rating, Field Poppy [3, 20]: 100
- Pigweed plant response rating [4, 14]: 100
- Plant response rating, Pigweed [4, 15]: 100
- Plant response rating, Pigweed [4, 16]: 100
- Plant response rating (scale of 0 to 100), Pigweed ([4]; Preemergence, 31 g ai/ha): 50
- Plant response rating, Pigweed [4, 17]: 95
- Plant response rating, Pigweed [4, 18]: 100
- Plant response rating, Pigweed [4, 19]: 100
- Plant response rating, Pigweed [4, 20]: 100
- Oat, Wild plant response rating [5, 14]: 75
- Plant response rating, Oat, Wild [5, 15]: 95
- Plant response rating, Oat, Wild [5, 16]: 95
- Plant response rating (scale of 0 to 100), Oat, Wild ([5]; Preemergence, 31 g ai/ha): 70
- Plant response rating, Oat, Wild [5, 17]: 75
- Plant response rating, Oat, Wild [5, 18]: 85
- Plant response rating, Oat, Wild [5, 19]: 90
- Plant response rating, Oat, Wild [5, 20]: 85
- Bluegrass plant response rating [6, 14]: 10
- Plant response rating, Bluegrass [6, 15]: 15
- Plant response rating, Bluegrass [6, 16]: 20
- Plant response rating (scale of 0 to 100), Bluegrass ([6]; Preemergence, 31 g ai/ha): 0
- Plant response rating, Bluegrass [6, 17]: 25
- Plant response rating, Bluegrass [6, 18]: 50
- Bluegrass plant response rating [6, 19]: 60
- Plant response rating, Bluegrass [6, 20]: 15
- Oilseed Rape plant response rating [7, 14]: 65
- Plant response rating, Oilseed Rape [7, 15]: 75
- Plant response rating, Oilseed Rape [7, 16]: 90
- Plant response rating (scale of 0 to 100), Oilseed Rape ([7]; Preemergence, 31 g ai/ha): 10
- Plant response rating, Oilseed Rape [7, 17]: 55
- Plant response rating, Oilseed Rape [7, 18]: 50
- Plant response rating, Oilseed Rape [7, 19]: 85
- Plant response rating, Oilseed Rape [7, 20]: 70
- Plant response rating, Barley, Winter [8, 14]: 0
- Plant response rating, Barley, Winter [8, 15]: 0
- Plant response rating, Barley, Winter [8, 16]: 20
- Plant response rating (scale of 0 to 100), Barley, Winter ([8]; Preemergence, 31 g ai/ha): 0
- Plant response rating, Barley, Winter [8, 17]: 0
- Plant response rating, Barley, Winter [8, 18]: 0
- Barley, Winter plant response rating [8, 19]: 65
- Plant response rating, Barley, Winter [8, 20]: 0
- Buckwheat, Wild plant response rating [9, 14]: 100
- Plant response rating, Buckwheat, Wild [9, 15]: 100
- Plant response rating, Buckwheat, Wild [9, 16]: 100
- Plant response rating (scale of 0 to 100), Buckwheat, Wild ([9]; Preemergence, 31 g ai/ha): 0
- Plant response rating, Buckwheat, Wild [9, 17]: 10
- Plant response rating, Buckwheat, Wild [9, 18]: 0
- Plant response rating, Buckwheat, Wild [9, 19]: 0
- Plant response rating, Buckwheat, Wild [9, 20]: 100
- Galium plant response rating [10, 14]: 95
- Plant response rating, Galium [10, 15]: 100
- Plant response rating, Galium [10, 16]: 100
- Plant response rating (scale of 0 to 100), Galium ([10]; Preemergence, 31 g ai/ha): 0
- Plant response rating, Galium [10, 17]: 35
- Plant response rating, Galium [10, 18]: 80
- Plant response rating, Galium [10, 19]: 85
- Plant response rating, Galium [10, 20]: 100
- Wheat, Spring plant response rating [11, 14]: 0
- Plant response rating, Wheat, Spring [11, 15]: 15
- Plant response rating, Wheat, Spring [11, 16]: 45
- Plant response rating (scale of 0 to 100), Wheat, Spring ([11]; Preemergence, 31 g ai/ha): 0
- Plant response rating, Wheat, Spring [11, 17]: 0
- Plant response rating, Wheat, Spring [11, 18]: 25
- Plant response rating, Wheat, Spring [11, 19]: 60
- Plant response rating, Wheat, Spring [11, 20]: 10
- Plant response rating, Barley, Spring [12, 14]: 0
- Plant response rating, Barley, Spring [12, 15]: 0
- Plant response rating, Barley, Spring [12, 16]: 5
- Plant response rating (scale of 0 to 100), Barley, Spring ([12]; Preemergence, 31 g ai/ha): 0
- Plant response rating, Barley, Spring [12, 17]: 0
- Plant response rating, Barley, Spring [12, 18]: 0
- Barley, Spring plant response rating [12, 19]: 20
- Plant response rating, Barley, Spring [12, 20]: 0
- Foxtail, Green plant response rating [13, 14]: 40
- Plant response rating, Foxtail, Green [13, 15]: 55
- Plant response rating, Foxtail, Green [13, 16]: 70
- Plant response rating (scale of 0 to 100), Foxtail, Green ([13]; Preemergence, 31 g ai/ha): 55
- Plant response rating, Foxtail, Green [13, 17]: 60
- Plant response rating, Foxtail, Green [13, 18]: 60
- Plant response rating, Foxtail, Green [13, 19]: 75
- Plant response rating, Foxtail, Green [13, 20]: 45
